From patent publication US9156845B2, “4-(substituted amino)-7H-pyrrolo[2,3-d] pyrimidines as LRRK2 inhibitors” (Pfizer Inc., priority 2012, dated 2015)

How the values were obtained:
CDK2 = CDK2 (Homo sapiens (Human), UniProt P24941); assay: ActivX kinase probe assay (human PBMC); format: binding; conditions: read-out: percent inhibition
Wnk1, Wnk2, Wnk3 = assay: ActivX kinase probe assay (human PBMC); format: binding
CaMK2g = CaMK2g (Homo sapiens (Human), UniProt Q13555); assay: ActivX kinase probe assay (human PBMC); format: binding; conditions: read-out: percent inhibition
NEK1 = NEK1 (Homo sapiens (Human), UniProt Q96PY6); assay: ActivX kinase probe assay (human PBMC); format: binding; conditions: read-out: percent inhibition
CHK2 = CHK2 (Homo sapiens (Human), UniProt O96017); assay: ActivX kinase probe assay (human PBMC); format: binding; conditions: read-out: percent inhibition
PIK3C3 = PIK3C3 (Homo sapiens (Human), UniProt Q8NEB9); assay: ActivX kinase probe assay (human PBMC); format: binding; conditions: read-out: percent inhibition
ACK = ACK (Homo sapiens (Human), UniProt Q07912); assay: ActivX kinase probe assay (human PBMC); format: binding; conditions: read-out: percent inhibition
MSK1 domain1 = MSK1 domain1 (Homo sapiens (Human), UniProt O75582); assay: ActivX kinase probe assay (human PBMC); format: binding; conditions: read-out: percent inhibition
GCN2 = GCN2 (Homo sapiens (Human), UniProt Q9P2K8); assay: ActivX kinase probe assay (human PBMC); format: binding; conditions: read-out: percent inhibition
CDK11, CDK8 = assay: ActivX kinase probe assay (human PBMC); format: binding
MAP3K5 = MAP3K5 (Homo sapiens (Human), UniProt Q99683); assay: ActivX kinase probe assay (human PBMC); format: binding; conditions: read-out: percent inhibition
NEK6, NEK7 = assay: ActivX kinase probe assay (human PBMC); format: binding
MARK2 = MARK2 (Homo sapiens (Human), UniProt Q7KZI7); assay: ActivX kinase probe assay (human PBMC); format: binding; conditions: read-out: percent inhibition
IRE1 = IRE1 (Homo sapiens (Human), UniProt O75460); assay: ActivX kinase probe assay (human PBMC); format: binding; conditions: read-out: percent inhibition
FAK = FAK (Homo sapiens (Human), UniProt Q05397); assay: ActivX kinase probe assay (human PBMC); format: binding; conditions: read-out: percent inhibition
TBK1 = TBK1 (Homo sapiens (Human), UniProt Q9UHD2); assay: ActivX kinase probe assay (human PBMC); format: binding; conditions: read-out: percent inhibition
CaMK1a = CaMK1a (Homo sapiens (Human), UniProt Q14012); assay: ActivX kinase probe assay (human PBMC); format: binding; conditions: read-out: percent inhibition
MAP3K4 = MAP3K4 (Homo sapiens (Human), UniProt Q9Y6R4); assay: ActivX kinase probe assay (human PBMC); format: binding; conditions: read-out: percent inhibition
AKT2, AKT3 = assay: ActivX kinase probe assay (human PBMC); format: binding
BTK = BTK (Homo sapiens (Human), UniProt Q06187); assay: ActivX kinase probe assay (human PBMC); format: binding; conditions: read-out: percent inhibition
FYN, SRC, YES = assay: ActivX kinase probe assay (human PBMC); format: binding
GPRK6 = GPRK6 (Homo sapiens (Human), UniProt P43250); assay: ActivX kinase probe assay (human PBMC); format: binding; conditions: read-out: percent inhibition
MAP2K1 = MAP2K1 (Homo sapiens (Human), UniProt Q02750); assay: ActivX kinase probe assay (human PBMC); format: binding; conditions: read-out: percent inhibition
[1] = biological target: GST-tagged truncated LRRK2 (Homo sapiens (Human), UniProt Q5S007); assay: LRRK2 Lantha Screen kinase assay; format: biochemical; conditions: geometric mean of 2-5 determinations unless otherwise indicated (a: >=6 determinations; b: single determination); read-out: LRRK2 WT IC50
ABL, ARG = assay: ActivX kinase probe assay (human PBMC); format: binding
LOK = LOK (Homo sapiens (Human), UniProt O94804); assay: ActivX kinase probe assay (human PBMC); format: binding; conditions: read-out: percent inhibition
JAK3 domain2 = JAK3 domain2 (Homo sapiens (Human), UniProt P52333); assay: ActivX kinase probe assay (human PBMC); format: binding; conditions: read-out: percent inhibition
DGKA = DGKA (Homo sapiens (Human), UniProt P23743); assay: ActivX kinase probe assay (human PBMC); format: binding; conditions: read-out: percent inhibition
MARK3 = MARK3 (Homo sapiens (Human), UniProt P27448); assay: ActivX kinase probe assay (human PBMC); format: binding; conditions: read-out: percent inhibition
RSK1, RSK2, RSK3 domain1 = assay: ActivX kinase probe assay (human PBMC); format: binding
FES = FES (Homo sapiens (Human), UniProt P07332); assay: ActivX kinase probe assay (human PBMC); format: binding; conditions: read-out: percent inhibition
PIK3CD = PIK3CD (Homo sapiens (Human), UniProt O00329); assay: ActivX kinase probe assay (human PBMC); format: binding; conditions: read-out: percent inhibition
ULK3 = ULK3 (Homo sapiens (Human), UniProt Q6PHR2); assay: ActivX kinase probe assay (human PBMC); format: binding; conditions: read-out: percent inhibition
LKB1 = LKB1 (Homo sapiens (Human), UniProt Q15831); assay: ActivX kinase probe assay (human PBMC); format: binding; conditions: read-out: percent inhibition
NEK7 = NEK7 (Homo sapiens (Human), UniProt Q8TDX7); assay: ActivX kinase probe assay (human PBMC); format: binding; conditions: read-out: percent inhibition
Chain of NEK7 (Q8TDX7 whole entry): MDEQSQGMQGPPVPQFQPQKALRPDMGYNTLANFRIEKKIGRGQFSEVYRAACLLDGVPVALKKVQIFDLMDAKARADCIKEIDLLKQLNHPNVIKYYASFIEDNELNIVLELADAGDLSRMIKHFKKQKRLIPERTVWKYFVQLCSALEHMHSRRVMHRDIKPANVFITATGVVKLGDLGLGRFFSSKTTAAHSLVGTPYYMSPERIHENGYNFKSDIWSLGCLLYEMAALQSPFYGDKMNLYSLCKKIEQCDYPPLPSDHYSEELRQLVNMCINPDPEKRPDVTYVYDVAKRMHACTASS

Chain of MSK1 domain1 (O75582 whole entry, the tested form may be a part): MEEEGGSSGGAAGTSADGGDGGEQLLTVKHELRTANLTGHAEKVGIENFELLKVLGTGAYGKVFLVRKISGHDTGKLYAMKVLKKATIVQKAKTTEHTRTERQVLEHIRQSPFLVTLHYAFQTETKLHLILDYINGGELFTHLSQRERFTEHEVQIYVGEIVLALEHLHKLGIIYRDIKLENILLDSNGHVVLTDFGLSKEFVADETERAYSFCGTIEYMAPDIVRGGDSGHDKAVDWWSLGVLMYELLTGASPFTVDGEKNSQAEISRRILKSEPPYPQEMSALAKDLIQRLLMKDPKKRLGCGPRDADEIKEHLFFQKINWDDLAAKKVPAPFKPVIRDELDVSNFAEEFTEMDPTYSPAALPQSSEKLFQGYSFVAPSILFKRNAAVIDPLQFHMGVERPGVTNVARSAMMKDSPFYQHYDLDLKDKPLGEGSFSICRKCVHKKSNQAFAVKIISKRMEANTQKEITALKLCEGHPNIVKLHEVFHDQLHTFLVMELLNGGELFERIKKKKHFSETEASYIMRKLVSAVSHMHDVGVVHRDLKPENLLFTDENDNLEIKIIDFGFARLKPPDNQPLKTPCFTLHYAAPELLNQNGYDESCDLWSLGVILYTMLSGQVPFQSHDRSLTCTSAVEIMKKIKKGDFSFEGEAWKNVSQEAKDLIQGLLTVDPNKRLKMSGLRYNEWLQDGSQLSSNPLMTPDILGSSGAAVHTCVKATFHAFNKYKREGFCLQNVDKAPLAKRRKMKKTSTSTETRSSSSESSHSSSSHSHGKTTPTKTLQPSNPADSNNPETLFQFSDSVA
Chain of FES (P07332 whole entry): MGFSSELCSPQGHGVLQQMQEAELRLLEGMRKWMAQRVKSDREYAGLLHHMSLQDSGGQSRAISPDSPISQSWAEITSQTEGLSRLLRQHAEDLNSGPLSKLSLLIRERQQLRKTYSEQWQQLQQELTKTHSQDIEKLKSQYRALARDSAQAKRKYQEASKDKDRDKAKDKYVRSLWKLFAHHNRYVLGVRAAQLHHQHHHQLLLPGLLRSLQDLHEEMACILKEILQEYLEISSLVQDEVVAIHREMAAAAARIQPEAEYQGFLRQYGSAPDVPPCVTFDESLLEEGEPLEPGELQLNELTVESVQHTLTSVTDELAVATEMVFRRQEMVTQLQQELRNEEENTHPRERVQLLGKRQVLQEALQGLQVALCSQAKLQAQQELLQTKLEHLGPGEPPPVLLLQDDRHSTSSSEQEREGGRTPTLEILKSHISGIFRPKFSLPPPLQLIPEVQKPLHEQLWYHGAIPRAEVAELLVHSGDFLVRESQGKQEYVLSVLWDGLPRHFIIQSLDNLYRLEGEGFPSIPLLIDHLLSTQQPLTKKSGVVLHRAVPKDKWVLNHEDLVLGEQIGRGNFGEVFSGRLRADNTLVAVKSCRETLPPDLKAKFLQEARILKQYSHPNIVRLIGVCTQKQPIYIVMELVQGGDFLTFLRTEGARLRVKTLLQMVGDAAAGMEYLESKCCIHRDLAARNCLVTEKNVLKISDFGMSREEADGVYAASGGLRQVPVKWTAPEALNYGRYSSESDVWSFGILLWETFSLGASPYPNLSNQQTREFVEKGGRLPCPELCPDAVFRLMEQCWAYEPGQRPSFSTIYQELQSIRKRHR
Chain of DGKA (P23743 whole entry): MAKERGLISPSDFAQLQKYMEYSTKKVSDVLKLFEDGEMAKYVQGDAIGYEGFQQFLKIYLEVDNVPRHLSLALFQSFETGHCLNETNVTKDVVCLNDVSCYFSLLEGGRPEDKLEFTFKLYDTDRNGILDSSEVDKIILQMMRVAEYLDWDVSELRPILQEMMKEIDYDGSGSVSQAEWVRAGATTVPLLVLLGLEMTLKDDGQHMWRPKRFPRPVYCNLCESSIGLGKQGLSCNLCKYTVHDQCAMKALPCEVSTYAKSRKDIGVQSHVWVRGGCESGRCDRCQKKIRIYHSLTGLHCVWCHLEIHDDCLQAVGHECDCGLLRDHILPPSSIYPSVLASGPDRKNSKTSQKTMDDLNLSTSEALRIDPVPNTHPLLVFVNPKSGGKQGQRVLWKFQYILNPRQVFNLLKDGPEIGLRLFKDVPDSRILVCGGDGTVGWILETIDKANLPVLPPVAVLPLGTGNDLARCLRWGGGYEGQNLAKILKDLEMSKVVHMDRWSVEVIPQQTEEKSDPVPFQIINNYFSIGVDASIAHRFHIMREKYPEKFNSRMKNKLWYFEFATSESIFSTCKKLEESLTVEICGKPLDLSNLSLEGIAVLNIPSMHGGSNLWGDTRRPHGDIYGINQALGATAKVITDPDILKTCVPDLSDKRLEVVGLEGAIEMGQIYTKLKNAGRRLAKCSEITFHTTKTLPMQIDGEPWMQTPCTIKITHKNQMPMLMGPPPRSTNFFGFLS
Chain of CaMK1a (Q14012 whole entry): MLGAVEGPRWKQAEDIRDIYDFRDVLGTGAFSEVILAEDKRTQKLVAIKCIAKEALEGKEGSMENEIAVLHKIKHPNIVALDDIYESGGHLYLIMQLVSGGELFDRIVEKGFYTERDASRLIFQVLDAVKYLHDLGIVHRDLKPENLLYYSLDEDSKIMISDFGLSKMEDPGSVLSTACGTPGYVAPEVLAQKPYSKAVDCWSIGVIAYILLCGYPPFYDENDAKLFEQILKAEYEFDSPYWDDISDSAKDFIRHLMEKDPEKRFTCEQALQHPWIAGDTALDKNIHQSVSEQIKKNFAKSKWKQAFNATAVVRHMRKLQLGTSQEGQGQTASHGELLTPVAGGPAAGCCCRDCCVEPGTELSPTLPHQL
Chain of MARK2 (Q7KZI7 whole entry): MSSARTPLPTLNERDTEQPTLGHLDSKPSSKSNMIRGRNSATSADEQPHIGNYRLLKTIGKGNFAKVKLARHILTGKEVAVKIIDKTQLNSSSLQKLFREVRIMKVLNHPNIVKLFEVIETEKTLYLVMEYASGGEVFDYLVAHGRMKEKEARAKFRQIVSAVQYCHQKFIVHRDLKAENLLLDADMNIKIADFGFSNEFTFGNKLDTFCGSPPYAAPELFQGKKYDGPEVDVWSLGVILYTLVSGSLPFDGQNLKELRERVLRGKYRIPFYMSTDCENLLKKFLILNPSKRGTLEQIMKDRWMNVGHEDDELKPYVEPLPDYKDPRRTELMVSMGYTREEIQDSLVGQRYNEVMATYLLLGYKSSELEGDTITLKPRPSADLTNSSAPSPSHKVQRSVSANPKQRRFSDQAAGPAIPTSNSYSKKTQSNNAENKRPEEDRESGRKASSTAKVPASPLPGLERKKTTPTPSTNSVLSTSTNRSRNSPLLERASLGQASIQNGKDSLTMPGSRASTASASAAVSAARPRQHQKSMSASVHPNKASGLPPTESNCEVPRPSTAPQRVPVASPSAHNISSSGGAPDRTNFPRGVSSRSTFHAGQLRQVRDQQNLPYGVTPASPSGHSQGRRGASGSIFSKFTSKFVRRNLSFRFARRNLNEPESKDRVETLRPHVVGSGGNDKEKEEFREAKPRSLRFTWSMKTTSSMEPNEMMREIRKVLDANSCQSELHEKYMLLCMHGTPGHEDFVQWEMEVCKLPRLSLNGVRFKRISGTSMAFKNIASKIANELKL
Chain of CHK2 (O96017 whole entry): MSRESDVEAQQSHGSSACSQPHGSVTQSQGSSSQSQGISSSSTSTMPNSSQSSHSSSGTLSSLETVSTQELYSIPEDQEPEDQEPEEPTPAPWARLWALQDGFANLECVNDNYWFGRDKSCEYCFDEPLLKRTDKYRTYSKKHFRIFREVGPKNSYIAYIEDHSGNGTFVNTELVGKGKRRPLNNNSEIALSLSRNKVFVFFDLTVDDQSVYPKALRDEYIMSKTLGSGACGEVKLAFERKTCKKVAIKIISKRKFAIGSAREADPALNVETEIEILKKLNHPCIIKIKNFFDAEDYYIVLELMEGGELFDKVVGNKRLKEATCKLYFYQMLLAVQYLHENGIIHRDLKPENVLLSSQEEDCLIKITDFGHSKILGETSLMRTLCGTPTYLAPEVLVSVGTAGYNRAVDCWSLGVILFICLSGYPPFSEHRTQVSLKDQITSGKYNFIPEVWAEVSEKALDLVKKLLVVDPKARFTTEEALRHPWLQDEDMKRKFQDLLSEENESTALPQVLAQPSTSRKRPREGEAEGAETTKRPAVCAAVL
Chain of ULK3 (Q6PHR2 whole entry): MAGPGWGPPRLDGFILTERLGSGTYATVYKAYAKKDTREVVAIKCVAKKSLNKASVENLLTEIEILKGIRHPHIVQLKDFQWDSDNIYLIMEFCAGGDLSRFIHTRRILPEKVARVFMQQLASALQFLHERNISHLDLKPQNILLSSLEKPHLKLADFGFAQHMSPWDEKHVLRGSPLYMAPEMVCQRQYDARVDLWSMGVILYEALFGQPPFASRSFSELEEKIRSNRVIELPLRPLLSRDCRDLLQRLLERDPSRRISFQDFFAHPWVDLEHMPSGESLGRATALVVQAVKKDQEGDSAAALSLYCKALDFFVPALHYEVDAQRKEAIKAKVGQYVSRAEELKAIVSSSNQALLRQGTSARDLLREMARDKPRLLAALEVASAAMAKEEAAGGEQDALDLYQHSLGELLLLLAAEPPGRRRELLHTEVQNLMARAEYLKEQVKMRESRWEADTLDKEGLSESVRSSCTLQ

## N#Cc1cccc(-c2c[nH]c3ncnc(N4CCOCC4)c23)c1 [Example 4, 3-[4-(Morpholin-4-yl)-7H-pyrrolo[2,3-d]pyrimidin-5-yl]benzonitrile]
CDK2
  inhibition at 0.1 µM: 11%
  inhibition at 1 µM: 9.2%
Wnk1, Wnk2, Wnk3; 0.1 μM
  percent inhibition: 1.7%
Wnk1, Wnk2, Wnk3; 1 μM
  percent inhibition: −6%
CaMK2g
  inhibition at 0.1 µM: -13.6%
  inhibition at 1 µM: 2.9%
NEK1
  inhibition at 0.1 µM: -8.9%
  inhibition at 1 µM: -1.9%
CHK2
  inhibition at 0.1 µM: -6.8%
  inhibition at 1 µM: 2.2%
PIK3C3
  inhibition at 0.1 µM: -2.4%
  inhibition at 1 µM: 13.6%
ACK
  inhibition at 0.1 µM: 0.8%
  inhibition at 1 µM: 7.7%
MSK1 domain1
  inhibition at 0.1 µM: 1%
  inhibition at 1 µM: -3.8%
GCN2
  inhibition at 0.1 µM: -13.6%
  inhibition at 1 µM: 0.6%
CDK11, CDK8; 0.1 μM
  percent inhibition: 5%
CDK11, CDK8; 1 μM
  percent inhibition: 36%
MAP3K5
  inhibition at 0.1 µM: 3.3%
  inhibition at 1 µM: 21.3%
NEK6, NEK7; 0.1 μM
  percent inhibition: −5.3%
NEK6, NEK7; 1 μM
  percent inhibition: −4.9%
MARK2
  inhibition at 0.1 µM: -4.7%
  inhibition at 1 µM: 27.3%
IRE1
  inhibition at 0.1 µM: -16%
  inhibition at 1 µM: 1.8%
FAK
  inhibition at 0.1 µM: -8.9%
  inhibition at 1 µM: 11.1%
TBK1
  inhibition at 0.1 µM: 7.3%
  inhibition at 1 µM: 16.4%
CaMK1a
  inhibition at 0.1 µM: -9.2%
  inhibition at 1 µM: 1.9%
MAP3K4
  inhibition at 0.1 µM: 9.7%
  inhibition at 1 µM: 29.8%
AKT2, AKT3; 0.1 μM
  percent inhibition: −2.6%
AKT2, AKT3; 1 μM
  percent inhibition: 6.8%
BTK
  inhibition at 0.1 µM: -2.2%
  inhibition at 1 µM: 9.5%
FYN, SRC, YES; 0.1 μM
  percent inhibition: −22.8%
FYN, SRC, YES; 1 μM
  percent inhibition: −8.8%
GPRK6
  inhibition at 0.1 µM: -3.9%
  inhibition at 1 µM: 10.9%
MAP2K1
  inhibition at 0.1 µM: -17.2%
  inhibition at 1 µM: 14%
[1]
  IC50: 3 nM
ABL, ARG; 0.1 μM
  percent inhibition: −29.4%
ABL, ARG; 1 μM
  percent inhibition: −0.9%
LOK
  inhibition at 0.1 µM: 11.9%
  inhibition at 1 µM: 53.6%
JAK3 domain2
  inhibition at 0.1 µM: 6.9%
  inhibition at 1 µM: 6.8%
DGKA
  inhibition at 0.1 µM: -15.9%
  inhibition at 1 µM: -8.7%
MARK3
  inhibition at 0.1 µM: -2.6%
  inhibition at 1 µM: 23.7%
RSK1, RSK2, RSK3 domain1; 0.1 μM
  percent inhibition: −0.4%
RSK1, RSK2, RSK3 domain1; 1 μM
  percent inhibition: 13.4%
FES
  inhibition at 0.1 µM: -9.2%
  inhibition at 1 µM: 6.9%
PIK3CD
  inhibition at 0.1 µM: -14%
  inhibition at 1 µM: -12.4%
ULK3
  inhibition at 0.1 µM: 3.1%
  inhibition at 1 µM: 5.2%
LKB1
  inhibition at 0.1 µM: 3.5%
  inhibition at 1 µM: 16.5%
NEK7
  inhibition at 0.1 µM: 2.2%
  inhibition at 1 µM: 7.3%
